Reference: patent US9108983B2, “Pyrrole compounds, a process for their preparation and pharmaceutical compositions containing them” (LES LABORATOIRES SERVIER, priority 2013, dated 2015)
Counter-ions that a name gives are not always drawn. Like-named read-outs stand apart in the source and are kept apart here.

Key:
Bcl-2 protein = Bcl-2 protein (histag-Bcl-2, UniProtKB P10415) (Homo sapiens (Human), UniProt P10415); assay: Inhibition of Bcl-2 by the fluorescence polarisation technique; assay type: binding; settings: incubation for 2 hours, read-out: IC50 (nM) Bcl-2 FP
Sequence of Bcl-2 protein (P10415 whole entry): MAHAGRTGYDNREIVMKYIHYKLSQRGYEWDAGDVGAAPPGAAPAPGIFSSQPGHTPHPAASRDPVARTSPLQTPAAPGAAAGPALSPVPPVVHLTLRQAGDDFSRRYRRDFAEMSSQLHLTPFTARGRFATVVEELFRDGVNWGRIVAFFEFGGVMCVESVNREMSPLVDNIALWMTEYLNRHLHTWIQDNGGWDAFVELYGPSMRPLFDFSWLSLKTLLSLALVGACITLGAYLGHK
Method in brief: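 Fluorescence polarisation competition: His-tagged Bcl-2 (2.50×10^−8 M final) with fluorescein-labelled peptide (1.00×10^−8 M final) in 10 mM Hepes, 150 mM NaCl, 0.05% Tween20, pH 7.4. Increasing compound concentrations were added. Polarisation was read after 2 h incubation.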

[1] = tested on: RS4;11 leukaemia tumour line; assay: In vitro cytotoxicity (Microculture Tetrazolium Assay); assay type: cell-based; settings: Homo sapiens, RS4;11 cells, exposed for 48 hours, cell viability, read-out: IC50 (nM) MTT RS4;11
Procedure: The cytotoxicity studies were carried out on the RS4;11 leukaemia tumour line.
The cells are distributed onto microplates and exposed to the test compounds for 48 hours.
The cell viability is then quantified by a colorimetric assay, the Microculture Tetrazolium Assay (Cancer Res., 1987, 47, 939-942).

IC50 (Bcl-2 protein) [nM]	SMILES	IC50 ([1]; RS4-11, 48 h) [nM]	IC50 [1] [nM]
3.6	Cc1c(C(=O)N(c2ccc(O)cc2)c2cnn(C)c2)cc(-c2cc(Cl)ccc2C(=O)N2Cc3ccccc3C[C@H]2CN2CCN3CCOC[C@@H]3C2)n1C [Example 115, 5-(5-Chloro-2-{[(3S)-3-[(9aS)-hexahydropyrazino[2,1-c][1,4]oxazin-8(1H)-ylmethyl]-3,4-dihydroisoquinolin-2(1H)-yl]carbonyl}phenyl)-N-(4-hydroxyphenyl)-1,2-dimethyl-N-(1-methyl-1H-pyrazol-4-yl)-1H-pyrrole-3-carboxamide dihydrochloride]	18.3	
3.9	Cc1c(C(=O)N(c2ccc(O)cc2)c2cc(C#N)n(C)c2)cc(-c2cc(Cl)ccc2C(=O)N2Cc3ccccc3C[C@H]2CN2CCOCC2)n1C [Example 108, 5-(5-Chloro-2-{[(3S)-3-(morpholin-4-ylmethyl)-3,4-dihydroisoquinolin-2(1H)-yl]carbonyl}phenyl)-N-(5-cyano-1-methyl-1H-pyrrol-3-yl)-N-(4-hydroxyphenyl)-1,2-dimethyl-1H-pyrrole-3-carboxamide hydrochloride]	15.4	
2.5	CCn1c(C#N)cc(N(C(=O)c2cc(-c3cc(Cl)ccc3C(=O)N3Cc4ccccc4C[C@H]3CN3CCOCC3)n(C)c2C)c2ccc(O)cc2)c1C [Example 459, 5-(5-Chloro-2-{[(3S)-3-(morpholin-4-ylmethyl)-3,4-dihydroisoquinolin-2(1H)-yl]carbonyl}phenyl)-N-(5-cyano-1-ethyl-2-methyl-1H-pyrrol-3-yl)-N-(4-hydroxyphenyl)-1,2-dimethyl-1H-pyrrole-3-carboxamide hydrochloride]	5.93	
3.4	Cc1c(C(=O)N(c2ccc(O)cc2)c2cnn(C3CC3)c2)cc(-c2cc(Cl)ccc2C(=O)N2Cc3ccccc3C[C@H]2CN2CCOCC2)n1C [Example 122, 5-(5-Chloro-2-{[(3S)-3-(morpholin-4-ylmethyl)-3,4-dihydroisoquinolin-2(1H)-yl]carbonyl}phenyl)-N-(1-cyclopropyl-1H-pyrazol-4-yl)-N-(4-hydroxyphenyl)-1,2-dimethyl-1H-pyrrole-3-carboxamide]	82.4	
11.3	Cc1c(C(=O)N(c2ccc(O)cc2)c2cnccn2)cc(-c2cc(Cl)ccc2C(=O)N2Cc3ccccc3C[C@H]2CN2CCOCC2)n1C [Example 438, 5-(5-Chloro-2-{[(3S)-3-(morpholin-4-ylmethyl)-3,4-dihydroisoquinolin-2(1H)-yl]carbonyl}phenyl)-N-(4-hydroxyphenyl)-1,2-dimethyl-N-(pyrazin-2-yl)-1H-pyrrole-3-carboxamide hydrochloride]	379	
3	Cc1nn(C)cc1N(C(=O)c1cc(-c2cc(Cl)ccc2C(=O)N2Cc3ccccc3C[C@H]2CN2CCOCC2)n(C)c1C)c1ccc(O)cc1 [Example 431, 5-(5-Chloro-2-{[(3S)-3-(morpholin-4-ylmethyl)-3,4-dihydroisoquinolin-2(1H)-yl]carbonyl}phenyl)-N-(1,3-dimethyl-1H-pyrazol-4-yl)-N-(4-hydroxyphenyl)-1,2-dimethyl-1H-pyrrole-3-carboxamide hydrochloride]	89	
4.2	COc1cc(C#N)cc(N(C(=O)c2cc(-c3cc(F)ccc3C(=O)N3Cc4ccccc4C[C@H]3CN3CCOCC3)n(C)c2C)c2ccc(O)cc2)c1 [Example 425, N-(3-Cyano-5-methoxyphenyl)-5-(5-fluoro-2-{[(3S)-3-(morpholin-4-ylmethyl)-3,4-dihydroisoquinolin-2(1H)-yl]carbonyl}phenyl)-N-(4-hydroxyphenyl)-1,2-dimethyl-1H-pyrrole-3-carboxamide hydrochloride]	62	
12.2	Cc1c(C(=O)N(c2ccc(O)cc2)c2cnc3c(ccn3C)c2)cc(-c2ccccc2C(=O)N2Cc3ccccc3C[C@H]2CN2CCOCC2)n1C [Example 409, N-(4-Hydroxyphenyl)-1,2-dimethyl-N-(1-methyl-1H-pyrrolo[2,3-b]-pyridin-5-yl)-5-(2-{[(3S)-3-(morpholin-4-ylmethyl)-3,4-dihydroisoquinolin-2(1H)-yl]-carbonyl}phenyl)-1H-pyrrole-3-carboxamide hydrochloride]	41.9	

Further lines, the compound ahead of its results:

SMILES	IC50 (Bcl-2 protein) [nM]	IC50 ([1]; RS4-11, 48 h) [nM]	IC50 [1] [nM]
CN1CCN(C[C@@H]2Cc3ccccc3CN2C(=O)c2ccc(Cl)cc2-c2cc(C(=O)N(c3ccc(O)cc3)c3ccc4[nH]ccc4c3)cn2C)CC1 [Example 3, 5-(5-Chloro-2-{[(3S)-3-[(4-methylpiperazin-1-yl)methyl]-3,4-dihydroisoquinolin-2(1H)-yl]carbonyl}phenyl)-N-(4-hydroxyphenyl)-N-(1H-indol-5-yl)-1-methyl-1H-pyrrole-3-carboxamide]	24.6	94.9	
CCn1c(-c2cc3c(cc2C(=O)N2Cc4ccccc4C[C@H]2CN2CCOCC2)OCO3)cc(C(=O)N(c2ccc(O)cc2)c2cnn(C)c2)c1C [Example 92, 1-Ethyl-N-(4-hydroxyphenyl)-2-methyl-N-(1-methyl-1H-pyrazol-4-yl)-5-(6-{[(3S)-3-(morpholin-4-ylmethyl)-3,4-dihydroisoquinolin-2(1H)-yl]carbonyl}-1,3-benzodioxol-5-yl)-1H-pyrrole-3-carboxamide hydrochloride]	8.4	37.8	
COc1ccc(C(=O)N2Cc3ccccc3C[C@H]2C)c(-c2cc(C(=O)N(c3ccc(O)cc3)c3cnn(C)c3)c(C)n2C)c1 [Example 31, N-(4-Hydroxyphenyl)-5-(5-methoxy-2-{[(3R)-3-methyl-3,4-dihydroisoquinolin-2(1H)-yl]carbonyl}phenyl)-1,2-dimethyl-N-(1-methyl-1H-pyrazol-4-yl)-1H-pyrrole-3-carboxamide]	7.2	89.3	
Cc1c(C(=O)N(c2ccc(O)c(F)c2)c2cnn(C)c2)cc(-c2cc3c(cc2C(=O)N2Cc4ccccc4C[C@H]2CN2CCOCC2)OCO3)n1C [Example 396, N-(3-Fluoro-4-hydroxyphenyl)-1,2-dimethyl-N-(1-methyl-1H-pyrazol-4-yl)-5-(6-{[(3S)-3-(morpholin-4-ylmethyl)-3,4-dihydroisoquinolin-2(1H)-yl]carbonyl}-1,3-benzodioxol-5-yl)-1H-pyrrole-3-carboxamide hydrochloride]	15.7	116	
Cc1c(C(=O)N(c2ccc(O)cc2)c2cnn(C)c2)cc(-c2cc3c(cc2C(=O)N2Cc4ccccc4C[C@H]2C)OCO3)n1CCN [Example 30, 1-(2-Aminoethyl)-N-(4-hydroxyphenyl)-2-methyl-5-(6-{[(3R)-3-methyl-3,4-dihydroisoquinolin-2(1H)-yl]carbonyl}-1,3-benzodioxol-5-yl)-N-(1-methyl-1H-pyrazol-4-yl)-1H-pyrrole-3-carboxamide hydrochloride]	4.7	771	
Cc1c(C(=O)N(C)c2ccc(O)cc2)cc(-c2ccc(CNC(=O)Oc3ccccc3)cc2C(=O)N2Cc3ccccc3C[C@H]2C)n1C [Example 32, Phenyl (4-{4-[(4-hydroxyphenyl)(methyl)carbamoyl]-1,5-dimethyl-1H-pyrrol-2-yl}-3-{[(3R)-3-methyl-3,4-dihydroisoquinolin-2(1H)-yl]carbonyl}benzyl)-carbamate]	13.3		240
COc1ccc(C(=O)N2Cc3ccccc3C[C@H]2C)c(-c2cc(C(=O)N(c3ccncc3)c3ccc(O)cc3)c(C)n2C)c1 [Example 20, N-(4-Hydroxyphenyl)-5-(5-methoxy-2-{[(3R)-3-methyl-3,4-dihydroisoquinolin-2(1H)-yl]carbonyl}phenyl)-1,2-dimethyl-N-(pyridin-4-yl)-1H-pyrrole-3-carboxamide hydrochloride]	4.9	164	
C[C@@H]1Cc2ccccc2CN1C(=O)c1cc2c(cc1-c1cc(C(=O)N(c3ccc(O)cc3)c3cnn(C)c3)c(CN3CCOCC3)n1C)OCO2 [Example 82, N-(4-Hydroxyphenyl)-1-methyl-5-(6-{[(3R)-3-methyl-3,4-dihydroisoquinolin-2(1H)-yl]carbonyl}-1,3-benzodioxol-5-yl)-N-(1-methyl-1H-pyrazol-4-yl)-2-(morpholin-4-ylmethyl)-1H-pyrrole-3-carboxamide]	19.5	427	
Cc1c(C(=O)N(c2ccccc2)c2ccc(O)cc2)cc(-c2cc3c(cc2C(=O)N2Cc4ccccc4C[C@H]2C)OCO3)n1C [Example 43, N-(4-Hydroxyphenyl)-1,2-dimethyl-5-(6-{[(3R)-3-methyl-3,4-dihydroisoquinolin-2(1H)-yl]carbonyl}-1,3-benzodioxol-5-yl)-N-phenyl-1H-pyrrole-3-carboxamide]	5.1	28.9	
Cc1c(C(=O)N(c2ccc(O)cc2)c2cnc3c(ccn3C)c2)cc(-c2cc(Cl)ccc2C(=O)N2Cc3ccccc3C[C@H]2C)n1C [Example 63, 5-(5-Chloro-2-{[(3R)-3-methyl-3,4-dihydroisoquinolin-2(1H)-yl]-carbonyl}phenyl)-N-(4-hydroxyphenyl)-1,2-dimethyl-N-(1-methyl-1H-pyrrolo[2,3-b]-pyridin-5-yl)-1H-pyrrole-3-carboxamide]	5.1	11.2	
COc1ncc(N(C(=O)c2cc(-c3cc(F)c(OC)cc3C(=O)N3Cc4ccccc4C[C@H]3CN3CCOCC3)n(C)c2C)c2ccc(O)cc2)cn1 [Example 439, 5-(5-Fluoro-4-methoxy-2-{[(3S)-3-(morpholin-4-ylmethyl)-3,4-dihydroisoquinolin-2(1H)-yl]carbonyl}phenyl)-N-(4-hydroxyphenyl)-N-(2-methoxypyrimidin-5-yl)-1,2-dimethyl-1H-pyrrole-3-carboxamide hydrochloride]	6.1	329	
